# Measured values from patent publication US20240115488A1, “COMPOSITION FOR ORAL CAVITY CARE” (ICHIMARU PHARCOS CO., LTD., priority 2021, published 2024).
# Like-named read-outs stand apart in the source and are kept apart here.
# Tested on: Streptococcus mutans (NBRC13955)
# Type: cell-based
# Conditions: Cont. group = 100
# Description: The Streptococcus mutans was cultured in Todd-Hewitt Broth at 37° C. overnight (approximately 16 hours), and proliferated until the absorbance OD660 measured at 660 nm reached to a value in the range from 0.8 to 1.4. The Streptococcus mutans proliferated was used. Based on the absorbance measured, the Streptococcus mutans was diluted with PBS such that OD660 was 0.125, to prepare a bacterial culture to be used in the following test.
# The Codium fragile extract liquid was diluted with PBS to have a concentration of 1%, and then used in the following test.
# Each antibacterial agent used in the test was prepared to have a concentration that was two times a test concentration for mixing of the antibacterial agent with the Codium fragile extract liquid, a fraction having a predetermined molecular weight, or PBS at 1:1.
# As a CPC solution, a stock solution (2% CPC) was obtained by dissolving 0.2 g of CPC in 10 mL of ethanol solution. This solution was diluted 20-fold with purified water to prepare a 0.1% CPC (5% ethanol) solution. This solution was further diluted with a 5% ethanol solution to prepare 0.05% CPC (5% ethanol) and 0.02% CPC (5% ethanol).
# As a benzalkonium chloride solution, a stock solution (2% benzalkonium chloride) was obtained by dissolving 0.2 g of benzalkonium chloride in 10 mL of ethanol solution. This solution was diluted 5-fold with ethanol to prepare an ethanol solution of 0.4% benzalkonium chloride solution. This solution was diluted 20-fold with purified water to prepare 0.02% benzalkonium chloride (5% ethanol). This was further diluted 2-fold with a 5% ethanol solution to prepare a 0.01% benzalkonium chloride (5% ethanol) solution. This solution was diluted 2 times with a 5% ethanol solution to prepare a 0.005% benzalkonium chloride (5% ethanol) solution.
# A 20% aqueous chlorhexidine solution was used as an undiluted solution of chlorhexidine solution. The chlorhexidine solution was diluted 20-fold with ethanol and purified water to prepare a 0.1% chlorhexidine (5% ethanol) solution. This solution was further diluted 5-fold with a 5% ethanol solution to prepare a 0.02% chlorhexidine (5% ethanol) solution. This solution was further diluted 10-fold with 5% ethanol to prepare a 0.002% chlorhexidine (5% ethanol) solution.
# As an IPMP solution, a stock solution (4% IPMP) was obtained by dissolving 0.4 g of IPMP in 10 mL of ethanol solution. This solution was diluted 20-fold with ethanol and purified water to prepare a 0.2% IPMP (20% ethanol) solution. This solution was further diluted 2-fold with 20% ethanol to prepare a 0.1% IPMP (20% ethanol) solution. This solution was further diluted with 20% ethanol to prepare a 0.04% IPMP (20% ethanol) solution.
# Two or more hours after toothbrushing, saliva was collected. Stimulated saliva secreted by mastication of Parafilm was collected, and then centrifuged at 4° C. and 2,000×g for 30 minutes. A supernatant was filtered with suction through a cellulose mixed ester membrane filter (0.1 μm, 90 mm), and the saliva was diluted with PBS to have an appropriate concentration.
# 100 μL of the human saliva prepared as describe above was added to a 96-well multiplate (made from polystyrene, MultiSorp, manufactured by Thermo Fisher Scientific Inc.), the multiplate was sealed, and incubation was carried out at 37° C. for 1 hour. Each well was then cleaned twice with 300 μL of PBS, 100 μL of each of the samples described above was added, the multiplate was sealed, and incubation was carried out at 37° C. for 1 hour. Subsequently, the liquid was discarded from each of the wells, the wells were cleaned twice with 300 μL of PBS, and 100 μL of the bacterial culture prepared such that OD660 was 0.125 was added to each well.
compound,measurement,setting,value
[H]/N=C(\N/C(=N/[H])NCCCCCCNC(=N)NC(=N)Nc1ccc(Cl)cc1)Nc1ccc(Cl)cc1 [chlorhexidine],Adhesion rate,"0.010 (w/v %) chlorhexidine, FIG. 3",85.9
same,Adhesion rate,"0.025 (w/v %) chlorhexidine, FIG. 3",63.3
same,Adhesion rate,"0.050 (w/v %) chlorhexidine, FIG. 3",62.4
"Cc1cc(O)ccc1C(C)C [IPMP, 3-methyl-4-isopropyl methylphenol]",Adhesion rate,"0.020 (w/v %) IPMP, FIG. 4",91.5
same,Adhesion rate,"0.050 (w/v %) IPMP, FIG. 4",84.3
same,Adhesion rate,"0.100 (w/v %) IPMP, FIG. 4",70.7
"CCCCCCCCCCCCCCCC[n+]1ccccc1 [CPC, cetylpyridinium chloride]",Adhesion rate,"0.010 (w/v %) CPC, relative value, FIG. 1",92.6
same,Adhesion rate,"0.025 (w/v %) CPC, relative value, FIG. 1",93.4
same,Adhesion rate,"0.050 (w/v %) CPC, relative value, FIG. 1",98.9
benzalkonium chloride,Adhesion rate,"0.010 (w/v %) benzalkonium chloride, FIG. 2",103
same,Adhesion rate,"0.025 (w/v %) benzalkonium chloride, FIG. 2",98.4
same,Adhesion rate,"0.050 (w/v %) benzalkonium chloride, FIG. 2",93.8
